Patent US20260041744A1, “Methods for Treating Pompe Disease” (Amicus Therapeutics, Inc., priority 2022, published 2026)
“Also recorded” adds a separate entry of the source.

What was measured:
adult subjects with LOPD [1] = assay: Study ATB200-07 (OLE): CK
Procedure: The Phase III double-blind PROPEL study (NCT03729362; ATB200-03) described in Examples 9 and 10 above compared the investigational two-component therapy cipaglucosidase alfa/miglustat (cipa/mig) with alglucosidase alfa/placebo (alglu) in adults with late-onset Pompe disease (LOPD) over 52 weeks. The ongoing open-label extension (OLE) of PROPEL (NCT04138277; ATB200-07) evaluates long-term safety and efficacy of cipa/mig. Outcomes include 6 minute walk distance (6MWD), forced vital capacity (FVC), creatine kinase (CK) and hexose tetrasaccharide (Hex4) levels and safety. Data are reported as change from the PROPEL baseline to OLE week 52 (104 weeks after the PROPEL baseline).

adult subjects with LOPD [2] = assay: Study ATB200-07 (OLE of PROPEL): 6MWD and % predicted 6MWD; assay type: in vivo, human
Source text: The study doses and schedule are maintained from Study ATB200-03.
Efficacy data are presented in this summary as change from the baseline of Study ATB200-03 (OLE-ES Population).

[3] = tested on: adult subjects with Pompe disease; assay: Pooled Studies ATB200-02/03/07 (Pool 2): sitting % predicted FVC by exposure interval
Procedure: The pooled efficacy analyses presented within this section include the outlier (Pool 2). […] Pooled efficacy analyses excluding the outlier subject (Pool 2A) were also performed.
No long-term data for the alglucosidase alfa/placebo group are available, as all subjects switched to cipaglucosidase alfa/miglustat in Study ATB200-07.
Efficacy data from the 3 adult Pompe disease clinical studies were pooled and analyzed to further support the long-term efficacy of cipaglucosidase alfa/miglustat in adult subjects. Data from non-ambulatory subjects (Study ATB200-02 Cohort 2) were not included in the pool as there was little overlap of efficacy endpoints for this group with the various ambulatory groups, such as 6MWD and lower MMT.
The 3 adult Pompe disease clinical studies were pooled as follows: • The cipaglucosidase alfa/miglustat treatment group consists of: • All ambulatory subjects in Study ATB200-02 (Cohorts 1, 3, and 4), • All subjects randomized to the cipaglucosidase alfa/miglustat treatment group in Study ATB200-03, and • All subjects enrolled in Study ATB200-07. • The alglucosidase alfa/placebo treatment group consists of: • All subjects randomized to the ERT treatment group in Study ATB200-03.

adult subjects with LOPD [4] = assay: Study ATB200-07 (OLE): PROMIS-Fatigue; assay type: in vivo, human
Source text: Analysis populations presented in this summary are 1) the OLE-ES Population (all subjects who satisfied the eligibility requirements (based on the inclusion and exclusion criteria) and entered Study ATB200-07 and 2) the OLE-FAS Population (all subjects who entered the OLE Study ATB200-07 who had both a valid ATB200-07 baseline and at least 1 post-baseline assessment for at least 1 of the 6 main efficacy endpoints [6MWD, sitting % predicted FVC, MMT-lower extremities, PROMIS-Physical Function, PROMIS-Fatigue, and GSGC]).

[5] = tested on: adult subjects with late-onset Pompe disease (LOPD); assay: Study ATB200-03 (PROPEL): urinary hexose tetrasaccharide (Hex4/Glc4); assay type: in vivo, human; details: for urinary Hex4 reduction vs alglucosidase alfa: week 52
[6] = tested on: adults with Pompe disease; assay: Study ATB200-02: GSGC, 10MWT, TUG; assay type: in vivo, human
Source text: The study design includes 4 stages and 4 cohorts, with Stages 1 and 2 only for Cohort 1 and Stages 3 and 4 for all 4 cohorts (FIG. 79).
The 4 cohorts in the study are as follows: • Cohort 1: ERT-experienced (2 to 6 years) ambulatory subjects (11 subjects) • Cohort 2: ERT-experienced (≥2 years) non-ambulatory subjects (6 subjects) • Cohort 3: ERT-naïve ambulatory subjects (6 subjects)· • Cohort 4: ERT-experienced (≥7 years) ambulatory subjects (6 subjects)

[7] = tested on: LOPD population (PROPEL target population); assay: Multi-level network meta-regression (ML-NMR) indirect treatment comparison, 6MWD and FVC change from baseline at week 52; design: species or system human
Procedure: Using patient-level data from the PROPEL randomized clinical trial (RCT) plus aggregate published data from other RCTs, Phase I/II and open label extension trials, a multi-level network meta-regression was conducted, adjusting for various baseline covariates including previous ERT duration. The base case scenario had covariates resembling the PROPEL population (naïve and ERT-experienced) and analyzed 6MWD and FVC change from baseline at 52 weeks.
An ITC providing relative effect estimates in the target population of interest (ie an LOPD population including a mix of ERT-naïve and ERT-experienced subjects as in the pivotal Phase III trial comparing Cipa+mig with Alglu [PROPEL]) was performed.
A systematic literature review (SLR) was conducted to identify relevant published clinical studies of ERTs in LOPD. Outcomes assessed were change from baseline in 6-minute walking distance (6MWD) (m) and in forced vital capacity (FVC; % predicted) at week 52, acknowledged by clinicians, HTA agencies and payers as key LOPD trial endpoints. Aggregate results on 6MWD and FVC change from baseline over time and baseline characteristics (age, gender, ethnicity, previous ERT duration, baseline 6MWD and baseline FVC) were extracted from included studies.
A multi-level network meta regression (ML-NMR) was performed, which is an extension of standard network meta-analyses (NMAs) that take into account the effect of study-level covariates, and that can be applied to any connected network with any mixture of individual patient-level data (IPD) and aggregate data. ML-NMR is an accepted method by the National Institute for Health and Care Excellence (NICE) in support of cost effectiveness analysis. Single-arm study results were matched to appropriate comparator arms of the comparative studies to allow for inclusion into the network. Mean treatment differences with associated 95% credible intervals (CrIs) were calculated for 6MWD and FVC change from baseline at week 52.
A base-case scenario was evaluated in which all covariates were set to the target population of the PROPEL trial. To study the impact of previous ERT duration on relative effects, ERT duration value was varied, keeping remaining covariate values as in the base-case scenario. A sensitivity analysis was performed by excluding all matched single-arm evidence from the network to assess its impact on the results.
Both fixed effects (FE) and random effects (RE) ML-NMR models were applied and the deviance information criteria (DIC) was used to assess goodness-of-fit of the models and to identify the appropriate model (FE or RE model) for the data. Models were implemented in a Bayesian framework using Stan with help of the R package multinma.
In the base-case scenario, the covariates were set to the baseline characteristics of the target population (ie the PROPEL trial; see Table 20), and time was set to 52 weeks.

[8] = tested on: adult subjects with late-onset Pompe disease (LOPD); assay: Study ATB200-03: summary across primary, secondary and biomarker endpoints (incl. SVC, FVC supine, MIP, MEP, SNIP, MMT upper/overall, QMT, TUG); details: ITT excluding outlier subject
Source text: • overall physical wellbeing • effort of breathing • muscle strength • muscle function • ability to move around • activities of daily living • energy level • level of muscular pain • actual value of the subject's functional status (improving, stable, or declining) at Week 52, as measured by the Physician's Global Impression of Change • change from baseline to Week 52 in the following measures of pulmonary function, as follows: • sitting FVC (% predicted) • MIP (cmH2O) • MIP (% predicted) • MEP (cmH2O) • MEP (% predicted) • SNIP (cmH2O)

[9] = Study ATB200-03 baseline, OLE-ES Population excluding Subject 4005-2511
[10] = change from ATB200-03 baseline at Week 104, alglucosidase alfa/placebo group switched to cipaglucosidase alfa/miglustat at Week 52, OLE-ES excluding Subject 4005-2511
[11] = exposure interval >15 to ≤24 months, Pool 2, including the outlier
[12] = exposure interval >24 months, Pool 2, including the outlier
[13] = exposure interval ≤15 months, Pool 2, including the outlier
[14] = Ambulatory ERT-experienced, 12 months
[15] = Ambulatory ERT-experienced, 24 months
[16] = Ambulatory ERT-experienced, 36 months
[17] = Ambulatory ERT-experienced, 48 months
[18] = Ambulatory ERT-naïve, 12 months
[19] = Ambulatory ERT-naïve, 24 months
[20] = Ambulatory ERT-naïve, 36 months
[21] = Ambulatory ERT-naïve, 48 months

Substance: ATB200/miglustat: two-component therapy: cipaglucosidase alfa (ATB200) administered in conjunction with miglustat (AT2221), a stabilizer of cipaglucosidase alfa
- CK course to Week 104 (adult subjects with LOPD [1]; OLE-ES Population, listed as cipaglucosidase alfa/miglustat): CK and Hex4 declined substantially through Study ATB200-03, then stabilized through Study ATB200-07; also recorded: declined substantially after subjects switched to cipaglucosidase alfa/miglustat through Week 104
- CK, mean BSL (adult subjects with LOPD [1]; [9]): 440.6
- CK, mean 52-wk CFB (adult subjects with LOPD [1]; change from ATB200-03 baseline at Week 52, OLE-ES excluding Subject 4005-2511): −129.1
- CK, mean 104-wk CFB (adult subjects with LOPD [1]; [10]): −154.9
- 6MWD course to Week 104 (adult subjects with LOPD [2]; OLE-ES Population, continued cipaglucosidase alfa/miglustat): showed an improvement through Study ATB200-03, which was then maintained through Week 104
- 6MWD, mean BSL (adult subjects with LOPD [2]; [9]): 354.9 m
- 6MWD, mean 52-wk CFB (adult subjects with LOPD [2]; change from ATB200-03 baseline at Week 52 (= ATB200-07 baseline), OLE-ES excluding Subject 4005-2511): 20.6 m
- 6MWD, mean 104-wk CFB (adult subjects with LOPD [2]; [10]): 20.2 m
- mean (SD) change from baseline in % predicted FVC ([3]; exposure >15 to ≤24 months (n=97)): -0.88 (7.103)
- mean (SD) change from baseline in % predicted FVC ([3]; exposure >24 months (n=68)): −2.55 (8.393)
- Sitting % Predicted FVC Baseline, Mean [3, 11]: 66.89 % predicted
- Sitting % Predicted FVC Baseline, Median [3, 11]: 67.50 % predicted
- sitting % predicted FVC change from baseline, mean [3, 11]: −0.88 % predicted
- sitting % predicted FVC change from baseline, median [3, 11]: −1.00 % predicted
- Sitting % Predicted FVC Baseline, Mean [3, 12]: 67.15 % predicted
- Sitting % Predicted FVC Baseline, Median [3, 12]: 69.00 % predicted
- sitting % predicted FVC change from baseline, mean [3, 12]: −2.55 % predicted
- sitting % predicted FVC change from baseline, median [3, 12]: −2.25 % predicted
- Sitting % Predicted FVC Baseline, Mean ([3]; exposure interval ≤15 months, Pool 2, Efficacy Population including the outlier): 67.51 % predicted
- Sitting % Predicted FVC Baseline, Median [3, 13]: 68.00 % predicted
- sitting % predicted FVC change from baseline, median [3, 13]: −1.00 % predicted
- sitting % predicted FVC change from baseline, mean ([3]; exposure interval ≤15 months, last available post-baseline value − baseline, Pool 2, including the outlier): −0.74 % predicted
- mean (SD) change from baseline in % predicted FVC ([3]; exposure ≤15 months (n=139)): -0.74 (6.121)
- PROMIS-Fatigue, mean BSL (adult subjects with LOPD [4]; [9]): 22.1
- PROMIS-Fatigue, mean 52-wk CFB (adult subjects with LOPD [4]; change from ATB200-03 baseline at Week 52, decrease indicates improvement, OLE-ES excluding Subject 4005-2511): −2.3
- PROMIS-Fatigue, mean 104-wk CFB (adult subjects with LOPD [4]; [10]): −1.6
- mean change in urine Hex-4 after 52 weeks ([5]; combined ERT switch and ERT naïve population): −31.5%
- urinary Hex4 reduction vs alglucosidase alfa [5]: reductions in CK and urinary Hex4 were significantly greater with ATB200/miglustat treatment at week 52
- urinary Hex4 reduction vs alglucosidase alfa ([5]; listed as AT-GAA): significantly favored AT-GAA compared to alglucosidase alfa
- urinary Hex4 reduction vs alglucosidase alfa ([5]; listed as cipaglucosidase alfa/miglustat): reductions in biomarkers of muscle damage (CK) and disease substrate (Hex4) also were significantly greater with cipaglucosidase alfa/miglustat compared with alglucosidase alfa
- 10-Meter Walk Test, CFBL mean [6, 14]: −0.1 seconds
- Gait, Stairs, Gowers, and Chair, CFBL mean [6, 14]: −1.3
- Timed Up and Go, CFBL mean [6, 14]: -1.5 s
- 10-Meter Walk Test, CFBL mean [6, 15]: 1.0 seconds
- Gait, Stairs, Gowers, and Chair, CFBL mean [6, 15]: −1.6
- Timed Up and Go, CFBL mean [6, 15]: 0.1 s
- 10-Meter Walk Test, CFBL mean [6, 16]: 3.9 seconds
- Gait, Stairs, Gowers, and Chair, CFBL mean [6, 16]: −1.1
- Timed Up and Go, CFBL mean [6, 16]: -1.5 s
- 10-Meter Walk Test, CFBL mean [6, 17]: 0.6 seconds
- Gait, Stairs, Gowers, and Chair, CFBL mean [6, 17]: −1.0
- Timed Up and Go, CFBL mean [6, 17]: -0.6 s
- 10-Meter Walk Test, CFBL mean [6, 18]: −0.9 seconds
- Gait, Stairs, Gowers, and Chair, CFBL mean [6, 18]: −0.8
- Timed Up and Go, CFBL mean [6, 18]: -0.7 s
- 10-Meter Walk Test, CFBL mean [6, 19]: −0.5 seconds
- Gait, Stairs, Gowers, and Chair, CFBL mean [6, 19]: −1.7
- Timed Up and Go, CFBL mean [6, 19]: -1.0 s
- 10-Meter Walk Test, CFBL mean [6, 20]: 0.1 seconds
- Gait, Stairs, Gowers, and Chair, CFBL mean [6, 20]: −2.0
- Timed Up and Go, CFBL mean [6, 20]: 0.5 s
- 10-Meter Walk Test, CFBL mean [6, 21]: 0.7 seconds
- Gait, Stairs, Gowers, and Chair, CFBL mean [6, 21]: −2.4
- Timed Up and Go, CFBL mean [6, 21]: 0.3 s
- GSGC CFB, mean ([6]; Cohort 1 + Cohort 3 + Cohort 4, 24-mo): −1.7
- GSGC CFB, mean ([6]; Cohort 1 + Cohort 3 + Cohort 4, 48-mo): −1.5
- GSGC CFB, mean ([6]; Cohort 1 + Cohort 4 (ERT-experienced), 24-mo, negative = improvement): −1.6
- GSGC CFB, mean ([6]; Cohort 1 + Cohort 4 (ERT-experienced), 48-mo): −1.0
- GSGC CFB, mean ([6]; Cohort 3 (ERT-naïve), 24-mo): −1.7
- GSGC CFB, mean ([6]; Cohort 3 (ERT-naïve), 48-mo): −2.4
- other measures of motor function incl. 10MWT, GSGC, TUG ([6]; ERT-experienced and ERT-naïve ambulatory subjects): improvements in other measures of motor function
- 6MWD relative effect vs alglucosidase alfa ([7]; base case, 52 weeks): 16.3 meters
- 6MWD relative effect vs avalglucosidase alfa ([7]; base case, 52 weeks): 29.5 meters
- FVC relative effect vs alglucosidase alfa ([7]; base case, 52 weeks): 3.1%
- FVC relative effect vs avalglucosidase alfa ([7]; base case, 52 weeks): 2.8%
- relative effect, sensitivity analysis (RCT data only), 6MWT and FVC ([7]; base-case scenario): statistically favourable versus Alglu; numerically unfavourable versus Aval; numerically favourable versus placebo (6MWT and FVC)
- relative effect, main analysis, 6MWD and FVC ([7]; base-case scenario / by ERT duration, listed as Cipa+mig): statistically significant favourable effect versus Alglu and Aval; also recorded: numerically favourable effect versus placebo; also recorded: for FVC, Cipa+mig was only numerically favorable vs. Aval in the ERT-naïve setting
- FVC relative effect vs Aval ([7]; naïve subjects): 0.4%
- parameters with statistically significant decline from baseline at Week 52 [8]: SVC sitting
- parameters with statistically significant improvement from baseline at Week 52 [8]: 6MWD, % predicted 6MWD, MMT lower extremities, MMT upper extremities, overall MMT, PROMIS-Physical Function, PROMIS-Fatigue, CK, and Hex4
